Data set [1] is described as follows: Test for hydrolytic stability in KH2PO4 buffer (HPLC). Type of data set: physicochemical. The conditions noted are these: for hydrolytic stability / degradation: aqueous KH2PO4 buffer 100 mM, pH 7.4, 5.5 and 8.5 (all tested pH values), 100 mM compound, r.t. Here is the method: Both nucleosides were dissolved in aqueous KH2PO4 buffer (100 mM, pH=7.4, 5.5 and 8.5) in 100 mM concentration. The solutions were immediately analysed via HPLC (t=0 h) with subsequent HPLC analyses every 1.5 h or at indicated time points. As stationary phase an EC 250/4 NUCLEOSIL 120-3 C18 (Macherey-Nagel) chromatography column was used. The mobile phase consisted of water (buffer A) and acetonitrile (buffer B) at a flow-rate of 0.5 mL/min as follows: 0→25 min, 0→5% buffer B; 25 min→28 min, 5%→80%; 28 min→38 min, 80%; 38 min→43 min 80%→0%; 43 min→45 min, 0%.
Since one treatment cycle for AzadC goes over four weeks we decided to measure the stability at a time point related to a half cycle (14 d). NMR spectra were measured after keeping the solutions at r.t.

Data set [2] relates to mouse embryonic stem cells (mESC). To be noted: from reference [19], cited from earlier work.
Data set [3] is described as follows: HPLC stability test of a neutral solution in pure water (FIG. 5). The data set is classed as physicochemical. The conditions noted are these: 100 mM solutions in pure water, t=0 h to 6 d. Here is the method: FIG. 5. HPLC investigation of a neutral solution of Decitabine 1 (left) versus the carbacyclic compound cAzaC 20 (right). 100 mM solutions of the compounds were kept in pure water and tested at t=0 h, 1.5 h, 3 h, 4.5 h, 6 h, 24 h, 6 d.

The test system of data set [4] is mouse embryonic stem cells (mESC). Briefly: Treatment of primed mESC, UHPLC-MS2 quantification of genome incorporation and mdC/hmdC levels. Type of data set: cell-based. The conditions noted are these: for level incorporated into the genome: primed mESC. As for the experimental part: Feeder independent wt J1 (strain 129S4/SvJae) cells were cultured in the presence of serum and LIF as previously described. They were routinely maintained on gelatinized plates in 2i/L medium. For priming experiments, 2i cultures were passaged when applicable in DMEM supplemented with FBS and LIF as above but lacking the inhibitors. For drug treatment, cells were moved into the primed state by removing 2i from the medium. Cells were incubated 2 d in DMEM supplemented with FBS and LIF in 6-well plates (VWR). After splitting, 2×10^5 cells were transferred into a 6-well plate culture dish and supplemented with either 1 μM (in 0.01% DMSO) or 5 μM cAzadC (in 0.05% DMSO) and treated for 72 h. After removal of the medium and washing the cells with DPBS, they were directly lysed with RLT^+ buffer as described in a previous publication.
The gDNA was isolated as described previously. The gDNA was directly subjected to a total enzymatic digest and analyzed using UHPLC-MS^2 as described in a previous publication. The external calibration curve was generated by serially diluting pure cAzadC [20 pmol, 10 pmol, 5 pmol, 2.5 pmol, 1.25 pmol, 0.625 pmol, 0.3125 pmol] and measuring it in technical triplicates prior to each measurement. Linear regression was done by OriginPro 2016G.
We investigated if the disarming effect described in Example 3 would influence the biological functions. We used for this purpose mouse embryonic stem cells (mESC) that were primed in serum/Lif as a model system, since mdC levels increase from naïve to primed state. We added cAzadC 1 in two different concentrations (1 μM and 5 μM) to mESC that have been primed for 48 h and allowed the cells to further proliferate under priming conditions in the presence of cAzadC 1 for additional 72 h. After the 72 h, we harvested the cells, isolated the DNA and digested the DNA down to the nucleoside level using our described protocol.
The levels of mdC were finally precisely quantified using isotope dilution UHPLC-MS^2. To this end, isotopically labelled standards of the nucleosides were spiked-in for exact quantification. In addition to mdC, we quantified the levels of 5-hydroxymethyl-2′-deoxycytidine (hmdC), which is formed from mdC by the action of TET enzymes. The absolute levels of hmdC are in mESC more than ten times lower than the mdC levels. The consequence is that even after a substantial reduction of mdC, there should be sufficient mdC to keep the hmdC levels constant. The question if and by how much the hmdC level is affected can therefore inform us about how epigenetic reprogramming is organized.
Parallel to the quantification of mdC and hmdC we also quantified to which extend cAzadC 1 itself was incorporated into the genome of the mESC. Detection of AzadC in the genome of treated cells is only possible after treatment of the DNA with NaBH4. Application of NaBH4 reduces the C(5)=C(6) double bond, which stabilizes the compound so that its quantification becomes possible. To our delight, we noted that the stability of cAzadC 1 allowed its quantification without this pre-treatment. We also noted that the applied enzymatic digestion protocol allowed to digest genomic DNA (gDNA) even in the presence of large amounts of cAzadC 1. Taken together, quantification of cAzadC 1 by UHPLC-MS^2 using an external calibration curve was possible in parallel to quantification of canonical and epigenetic bases.

“Also recorded” adds a separate entry of the source. Where two headings read alike, the source gives them in different places.

Turning to `Nc1ncn([C@H]2C[C@H](O)[C@@H](CO)O2)c(=O)n1` [AzadC, 5-Aza-2′-deoxycytidine], the “hydrolytic stability / degradation” value in data set [1] (14 d) is given as “strongly degraded; also recorded: severe hydrolytic decomposition”. Besides, the intact compound remaining entry is “only hardly detectable” in data set [1] (pH=5.5, 14 d) and “only hardly detectable” in data set [1] (pH=8.5, 14 d). Also, in data set [1] (physiological pH (7.4), 14 d), the “intact compound remaining / degradation” value is “still present after 14 d but the level of degradation is dramatic”. Further, the “decrease of mdC to % of the original value” in data set [2] (24 h, 1 μM) is reported as 50%. In addition, the “level incorporated into the genome” value in data set [2] (applied with 1 μM) is given as 1.2×10^−3 AzadC per dN.

In the case of `Nc1ncn([C@@H]2C[C@H](CO)[C@@H](O)[C@H]2O)c(=O)n1` [cAzaC 20, 4-Amino-1-[(1′R,2′S,3′R,4′R)-2′,3′-bishydroxy-4′-(hydroxymethyl) -cyclopentyl]-1H-[1,3,5]-triazin-2-one], in data set [3], the “stability compared with decitabine” value is reported as “much more stable”.

`Nc1ncn([C@@H]2C[C@H](CO)[C@@H](O)C2)c(=O)n1` [cAzadC 1, 4-Amino-1-[(1′R,3′S,4′R)-3′-hydroxy-4′-(hydroxymethyl)-cyclopentyl]-1H -[1,3,5]triazin-2-one]: the “hydrolytic stability / degradation” value in data set [1] (14 d) is recorded as “no degradation; also recorded: stable at all three pH values”. Also, in data set [4] (1 μM, 72 h), the “hmdC levels reduced to” value is “about 50%”, the “nucleotides integrated into the genome” value was roughly 3 million and the “level incorporated into the genome” value is given as 5×10^−4 cAzadC per dN. For the same molecule, in data set [4] (1 μM, compared with AzadC at 1 μM [19]), the “incorporated level relative to the AzadC level” value is “about a third”. Moreover, in data set [4] (5 μM versus 1 μM), the “increase of incorporated level, 5 μM versus 1 μM” value was determined as 3 fold. Moreover, in data set [4] (5 μM, 72 h), the “nucleotides integrated per genome” value is “more than 8 million” and the “level incorporated into the genome” value is on record as 1.7×10^−3 cAzadC per dN. The hmdC detection entry in data set [4] (5 μM, 72 h, 0.5 μg of genomic DNA) is “unable to detect hmdC above background levels”. In addition, the “mdC levels, of the original value” in data set [4] (72 h at 5 µM concentration in the medium) is reported as “about 50%”. In addition, the “reduction of the mdC values” in data set [4] (72 h at 1 M cAzadC in the medium) is roughly 30%. For the same molecule, in data set [4] (summary, concentration not given), the “mdC level relative to the control levels” value worked out at 70%.
